Key:
[1] = tested on: MCF7; test: Growth inhibitory activity against MCF-7 human breast tumor cell line at a concentration of 10e-8 M in vitro.; format: functional; design: scale not given: the % may be the effect or the level left
[2] = tested on: MCF7; test: Growth inhibitory activity against MCF-7 human breast tumor cell line at a concentration of 10e-6 M in vitro.; format: functional; design: scale not given: the % may be the effect or the level left
[3] = tested on: MCF7; test: Growth inhibitory activity against MCF-7 human breast tumor cell line at a concentration of 10e-7 M in vitro.; format: functional; design: scale not given: the % may be the effect or the level left
[4] = molecular target: Estrogen receptor (Homo sapiens) (UniProt Q92731+P03372); test: Relative binding affinity against estrogen receptors in MCF-7 whole cells; format: cell-based; conditions: MCF7

SMILES | Activity [1] | Activity [2] | Activity [3] | relative binding affinity (RBA) [4]
CC/C(=C(\c1ccc(Br)cc1)c1ccc(OCCN(C)C)cc1)c1ccccc1 | 130% | 63% | 101% | 
CC/C(=C(/c1ccc(OCCN(C)C)cc1)c1cccc(I)c1)c1ccccc1 | 100% | 27% | 68% | 
CC/C(=C(\c1ccc(C=O)cc1)c1ccc(OCCN(C)C)cc1)c1ccccc1 | 62% | 42% | 38% | 
CC/C(=C(\c1ccccc1)c1ccc(OCCN(C)C)cc1)c1ccccc1 [TAMOXIFEN] | 119% | 70% | 100% | 
CC/C(=C(\c1ccc(I)cc1)c1ccc(OCCN2CCCC2)cc1)c1ccccc1 [IDOXIFENE] | 84% | 20% | 27% | 
CC/C(=C(/c1ccc(I)cc1)c1ccc(OCCN(C)C)cc1)c1ccccc1 | 99% | 120% | 126% | 
CC/C(=C(/c1ccc(OCCN(C)C)cc1)c1ccc(S(C)(=O)=O)cc1)c1ccccc1 | 125% | 29% | 75% | 
CC/C(=C(/c1ccc(Br)cc1)c1ccc(OCCN(C)C)cc1)c1ccccc1 | 110% | 174% | 163% | 
CCC(=C(c1ccc(O)cc1)c1ccc(OCCN(C)C)cc1)c1ccccc1 | 48% | 15% | 38% | 
CC/C(=C(\c1ccc(CO)cc1)c1ccc(OCCN(C)C)cc1)c1ccccc1 | 164% | 150% | 145% | 1.5
CC/C(=C(\c1ccc(OCCN(C)C)cc1)c1ccc(S(C)(=O)=O)cc1)c1ccccc1 | 88% | 140% | 114% | 
CC/C(=C(\c1ccc(OCCN(C)C)cc1)c1ccc(SC)cc1)c1ccccc1 | 102% | 69% | 117% | 
CC/C(=C(/c1ccccc1)c1ccc(OCCN(C)C)cc1)c1ccccc1 | 135% | 137% | 140% | 
CC/C(=C(\c1ccc(I)cc1)c1ccc(OCCN(CC)CC)cc1)c1ccccc1 | 101% | 23% | 35% | 
CC/C(=C(/c1ccc(OCCN(C)C)cc1)c1ccc([S+](C)[O-])cc1)c1ccccc1 (centres undefined) | 177% | 238% | 237% | 
CC/C(=C(/c1ccc(OCCN(C)C)cc1)c1ccc(C2CO2)cc1)c1ccccc1 (centres undefined) | 113% | 19% | 42% | 
CC/C(=C(/c1ccc(OCCN(C)C)cc1)c1ccc(SC)cc1)c1ccccc1 | 154% | 54% | 66% | 
CC/C(=C(\c1ccc(Cl)cc1)c1ccc(OCCN(C)C)cc1)c1ccccc1 | 116% | 56% | 119% | 
CC/C(=C(\c1ccc(I)cc1)c1ccc(OCCN(C)C)cc1)c1ccccc1 | 115% | 26% | 42% | 
CC/C(=C(\c1ccc(OCCN(C)C)cc1)c1ccc([S+](C)[O-])cc1)c1ccccc1 (centres undefined) | 112% | 67% | 135% | 
CC/C(=C(\c1ccc(S)cc1)c1ccc(OCCN(C)C)cc1)c1ccccc1 | 94% | 147% | 110% | 
